ChEMBL document CHEMBL3286270, “Adenosine analogue inhibitors of S-adenosylhomocysteine hydrolase” (Bioorg Med Chem Lett, 2014)

Legend:
Adenosylhomocysteinase [1] = biological target: T1, Adenosylhomocysteinase (Homo sapiens, UniProt P23526); experiment: Inhibition of recombinant human AHCY using SAH as substrate assessed as formation of homocysteine after 10 mins
Adenosylhomocysteinase [2] = biological target: T1, Adenosylhomocysteinase; experiment: Inhibition of AHCY in human SH-SY5Y cells assessed as formation of homocysteine after 48 hrs by HPLC analysis; type: cell-based
[3] = Solubility of the compound at pH 7; type: physicochemical; settings: buffer
[4] = Half life in rat; type: ADME, organism-based; settings: in vivo
[5] = Oral bioavailability in dog; type: ADME, organism-based, Canis lupus familiaris; settings: in vivo
[6] = Clearance in dog; type: ADME, organism-based, Canis lupus familiaris; settings: in vivo
[7] = Clearance in rat; type: ADME, organism-based; settings: in vivo
[8] = Plasma protein binding in human; type: ADME, cell-free
[9] = Oral bioavailability in rat; type: ADME, organism-based; settings: in vivo
[10] = Half life in dog; type: ADME, organism-based, Canis lupus familiaris; settings: in vivo
[11] = Plasma protein binding in rat; type: ADME, cell-free

T1 sequence (P23526 whole entry): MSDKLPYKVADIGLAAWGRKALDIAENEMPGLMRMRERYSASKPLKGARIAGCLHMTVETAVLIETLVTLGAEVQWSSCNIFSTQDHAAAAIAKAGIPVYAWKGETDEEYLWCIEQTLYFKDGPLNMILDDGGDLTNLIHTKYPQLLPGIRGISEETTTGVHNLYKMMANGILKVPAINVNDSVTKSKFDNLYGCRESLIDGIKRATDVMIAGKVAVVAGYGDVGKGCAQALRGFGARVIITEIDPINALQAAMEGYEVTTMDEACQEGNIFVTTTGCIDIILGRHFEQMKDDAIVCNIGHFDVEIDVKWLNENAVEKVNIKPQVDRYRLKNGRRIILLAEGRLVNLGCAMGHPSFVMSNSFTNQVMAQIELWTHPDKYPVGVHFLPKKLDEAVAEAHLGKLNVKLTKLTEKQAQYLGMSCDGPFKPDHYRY

Nc1ncnc2c1ncn2[C@@H]1C=C[C@@H](O)[C@H]1O
IC50 (Adenosylhomocysteinase [1]): 4120 nM | IC50 (Adenosylhomocysteinase [2]): 877 nM

Nc1ncnc2c1ncn2[C@@H]1CC[C@@H](O)[C@H]1O
IC50 (Adenosylhomocysteinase [1]): 55 nM | IC50 (Adenosylhomocysteinase [2]): 1.5 nM

Nc1ncc(F)c2c1ncn2[C@@H]1C[C@@H](O)[C@@H](O)[C@H]1O
IC50 (Adenosylhomocysteinase [1]): > 10000 nM | IC50 (Adenosylhomocysteinase [2]): 878 nM

Nc1nccn2c([C@@H]3CC[C@@H](O)[C@H]3O)cnc12
IC50 (Adenosylhomocysteinase [1]): 250 nM | IC50 (Adenosylhomocysteinase [2]): 1.5 nM

Nc1ncnc2c1nc(F)n2[C@@H]1CC[C@@H](O)[C@H]1O
IC50 (Adenosylhomocysteinase [1]): > 10000 nM | IC50 (Adenosylhomocysteinase [2]): > 10000 nM

Nc1ncnc2c1nc(Cl)n2[C@@H]1CC[C@@H](O)[C@H]1O
IC50 (Adenosylhomocysteinase [1]): > 10000 nM | IC50 (Adenosylhomocysteinase [2]): 2100 nM

Nc1ncnc2c1nc(Br)n2[C@@H]1CC[C@@H](O)[C@H]1O
IC50 (Adenosylhomocysteinase [1]): > 10000 nM | IC50 (Adenosylhomocysteinase [2]): > 10000 nM

Nc1nc(F)nc2c1ncn2[C@@H]1CC[C@@H](O)[C@H]1O
IC50 (Adenosylhomocysteinase [1]): 2120 nM | IC50 (Adenosylhomocysteinase [2]): 98 nM

Nc1nc(F)cc2c1ncn2[C@@H]1CC[C@@H](O)[C@H]1O
IC50 (Adenosylhomocysteinase [1]): 4830 nM

Nc1ncc(F)c2c1ncn2[C@@H]1CC[C@@H](O)[C@H]1O
solubility [3]: > 200 uM/ml | half-life [4]: 0.9 h | bioavailability [5]: > 99% | IC50 (Adenosylhomocysteinase [1]): 40 nM | clearance [6]: 9.6 mL/min/kg | IC50 (Adenosylhomocysteinase [2]): 1.3 nM | clearance [7]: 21 mL/min/kg | PPB [8]: < 0.1% | bioavailability [9]: 86% | half-life [10]: 3.6 h | PPB [11]: < 0.1%

Nc1ncc(Cl)c2c1ncn2[C@@H]1CC[C@@H](O)[C@H]1O
IC50 (Adenosylhomocysteinase [1]): 16 nM | IC50 (Adenosylhomocysteinase [2]): 2.2 nM

Cc1cnc(N)c2ncn([C@@H]3CC[C@@H](O)[C@H]3O)c12
IC50 (Adenosylhomocysteinase [1]): 236 nM | IC50 (Adenosylhomocysteinase [2]): 36 nM

Nc1nc(F)c(F)c2c1ncn2[C@@H]1CC[C@@H](O)[C@H]1O
IC50 (Adenosylhomocysteinase [1]): 3640 nM | IC50 (Adenosylhomocysteinase [2]): 189 nM

Nc1ncc(F)c2c1ncn2[C@@H]1C[C@@H](F)[C@@H](O)[C@H]1O
IC50 (Adenosylhomocysteinase [1]): > 10000 nM | IC50 (Adenosylhomocysteinase [2]): 672 nM

Nc1ncc(F)c2c1ncn2[C@@H]1C[C@H](F)[C@@H](O)[C@H]1O
IC50 (Adenosylhomocysteinase [1]): 269 nM | IC50 (Adenosylhomocysteinase [2]): 41 nM

Nc1ncc(F)c2c1ncn2[C@@H]1C[C@H](O)[C@@H](O)[C@H]1O
IC50 (Adenosylhomocysteinase [1]): 24 nM | IC50 (Adenosylhomocysteinase [2]): 9.4 nM

C[C@H]1C[C@@H](n2cnc3c(N)ncc(F)c32)[C@H](O)[C@@H]1O
IC50 (Adenosylhomocysteinase [1]): 1220 nM

Nc1ncc(F)c2c1ncn2[C@@H]1C=C[C@@H](O)[C@H]1O
IC50 (Adenosylhomocysteinase [1]): 9690 nM

Nc1ncc(F)c2c1ncn2[C@H]1[C@H](O)[C@H](O)[C@@H]2C[C@@H]21
IC50 (Adenosylhomocysteinase [1]): > 10000 nM | IC50 (Adenosylhomocysteinase [2]): 1960 nM

Nc1ncc(F)c2c1ncn2[C@@H]1C(F)=C[C@@H](O)[C@H]1O
IC50 (Adenosylhomocysteinase [1]): 976 nM

Nc1ncnc2c1ncn2[C@@H]1C=C(CCl)[C@@H](O)[C@H]1O
IC50 (Adenosylhomocysteinase [1]): 195 nM | IC50 (Adenosylhomocysteinase [2]): 939 nM

Nc1ncc(F)c2c1ncn2[C@@H]1C(F)C[C@@H](O)[C@H]1O (mixture of isomers)
IC50 (Adenosylhomocysteinase [1]): 455 nM | IC50 (Adenosylhomocysteinase [2]): 2.7 nM

Nc1ncnc2c1ncn2[C@@H]1C=C(CO)[C@@H](O)[C@H]1O [NEOPLANOCIN A]
IC50 (Adenosylhomocysteinase [1]): 1.5 nM | IC50 (Adenosylhomocysteinase [2]): 10 nM
